This passage reports IC50 results from patent US20150225369A1, “DDR2 INHIBITORS FOR THE TREATMENT OF OSTEOARTHRITIS” (Merck Patent GmbH, priority 2012, published 2015).

pIC50: −log10 of the molar value.

The target in this assay is T1, HEK293 transfected with human DDR2 (Homo sapiens, UniProt Q16832).
T1 construct: expressed in transfected cells; host or cells: HEK293 (PLT460F_(DDR2)-P7-1)
T1 sequence (Q16832 22-855): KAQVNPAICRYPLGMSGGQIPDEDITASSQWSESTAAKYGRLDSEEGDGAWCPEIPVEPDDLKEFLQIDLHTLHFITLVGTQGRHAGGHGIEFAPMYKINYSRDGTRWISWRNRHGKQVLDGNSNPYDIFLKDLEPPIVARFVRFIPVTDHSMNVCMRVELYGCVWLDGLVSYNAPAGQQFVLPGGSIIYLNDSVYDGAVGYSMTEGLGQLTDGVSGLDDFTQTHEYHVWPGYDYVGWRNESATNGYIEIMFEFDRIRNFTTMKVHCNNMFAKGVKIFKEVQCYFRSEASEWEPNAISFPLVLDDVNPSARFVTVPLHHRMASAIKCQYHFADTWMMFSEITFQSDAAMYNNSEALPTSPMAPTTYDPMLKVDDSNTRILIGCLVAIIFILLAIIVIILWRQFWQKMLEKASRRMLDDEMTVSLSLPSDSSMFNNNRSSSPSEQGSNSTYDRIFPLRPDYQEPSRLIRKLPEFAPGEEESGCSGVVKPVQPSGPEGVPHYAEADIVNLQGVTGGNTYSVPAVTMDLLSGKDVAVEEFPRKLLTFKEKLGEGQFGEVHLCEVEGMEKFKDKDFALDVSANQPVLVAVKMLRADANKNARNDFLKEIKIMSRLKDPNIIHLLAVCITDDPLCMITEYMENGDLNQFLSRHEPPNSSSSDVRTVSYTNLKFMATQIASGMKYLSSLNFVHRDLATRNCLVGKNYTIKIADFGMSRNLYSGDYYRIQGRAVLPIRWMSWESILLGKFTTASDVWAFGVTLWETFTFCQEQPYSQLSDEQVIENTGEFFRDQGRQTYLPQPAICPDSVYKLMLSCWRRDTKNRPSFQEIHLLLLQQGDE
Nature of the assay: Phospho-DDR2 cellular assay (collagen II induced DDR2 phosphorylation, ELISA). It counts as cell-based. Conditions: cellular phospho-DDR2; read-out: IC50 [p-DDR2]. As for the experimental part: Assays were performed in a 384 well plate format, using cell line HEK293 transfected with human DDR2 (PLT460F_(DDR2)-P7-1)
Cells were seeded at a density of 10'000 cells/well in 384well poly-D-lysine coated Black/clear plate (Cellcoat Greiner) and incubated in DMEM medium in the presence of 10% fetal bovine serum at 37° C., 5% CO2 for 48 h. Medium was replaced by serum-free medium and cells were incubated at 37° C., 5% CO2 for 8 h. Compound to be tested in 5% DMSO or 5% DMSO and 50 μg/ml of chicken collagen II were added and cells were incubated at 37° C., 5% CO2 for 16 h
Cells were rinsed with ice-cold PBS, lysed with lysis buffer (M-PER Thermo #78501) for 30 min at room temperature and centrifuged for 1 min at 1000 RPM. In parallel, White High binding 384 well plates (Corning) were coated with mouse anti-human DDR2 capture antibody (R&D Systems kit DuoSet IC Human phospho-DDR2 ELISA), overnight at RT.
An aliquot of cell lysate was transferred to the coated plates and incubated for 2 h at RT. Plates were washed and mouse anti-phospho-tyrosine detection antibody (R&D Systems kit DuoSet IC Human phospho-DDR2 ELISA) conjugated to horse radish peroxidase (HRP) was added for 2 h at RT. Plates were washed and chemiluminescent substrate for HRP (Thermo) was added for 15 min at RT. Luminescence was measured on a luminometer.
On to `CNC(=O)c1cc(Oc2ccc(CNC(=O)Nc3cc(C(F)(F)F)ccc3CCN)cc2)ccn1` [compound 175, 4-(4-{3-[2-(2-Amino-ethyl)-5-trifluoromethyl-phenyl]-ureidomethyl}-phenoxy)-pyridine-2-carboxylic acid methylamide], for which the pIC50 is 5.89.
As for `CNC(=O)c1cc(Oc2ccc(CNC(=O)Nc3cc(C(F)(F)F)ccc3N3CCNCC3)cc2)ccn1` [compound 122, 4-{4-[3-(2-Piperazin-1-yl-5-trifluoromethyl-phenyl)-ureidomethyl]-phenoxy}-pyridine-2-carboxylic acid methylamide], the figure is 6.87.
Under `CNC(=O)c1cc(Oc2ccc(CNC(=O)Nc3ccc(Cl)c(C)c3)cc2)ccn1` [compound 74, 4-{4-[3-(4-Chloro-3-methyl-phenyl)-ureidomethyl]-phenoxy}-pyridine-2-carboxylic acid methylamide] stands 6.76; under `CNC(=O)c1cc(Oc2ccc(CNC(=O)Nc3ccc(OC)c(Cl)c3)cc2)ccn1` [compound 39, 4-{4-[3-(3-Chloro-4-methoxy-phenyl)-ureidomethyl]-phenoxy}-pyridine-2-carboxylic acid methylamide], 7.19.
Under `CNC(=O)c1cc(Oc2ccc(CNC(=O)Nc3cccc(S(N)(=O)=O)c3)cc2)ccn1` [compound 157, 4-{4-[3-(3-Sulfamoyl-phenyl)-ureidomethyl]-phenoxy}-pyridine-2-carboxylic acid methylamide] stands 6.30; under `CNC(=O)c1cc(Oc2ccc(CNC(=O)Nc3cc(C)c(Cl)cc3-n3cccc3)cc2)ccn1` [compound 219, 4-{4-[3-(4-Chloro-5-methyl-2-pyrrol-1-yl-phenyl)-ureidomethyl]-phenoxy}-pyridine-2-carboxylic acid methylamide], 6.94.
With `CNC(=O)c1cc(Oc2ccc(CNC(=O)Nc3cc(Cl)ccc3C)cc2)ccn1` [compound 42, 4-{4-[3-(5-Chloro-2-methyl-phenyl)-ureidomethyl]-phenoxy}-pyridine-2-carboxylic acid methylamide], the pIC50 is 6.64.
As for `CNC(=O)c1cc(Oc2ccc(CNC(=O)Nc3cc(C(F)(F)F)ccc3-n3cncn3)cc2F)ccn1` [compound 235, 4-{2-Fluoro-4-[3-(2-[1,2,4]triazol-1-yl-5-trifluoromethyl-phenyl)-ureidomethyl]-phenoxy}-pyridine-2-carboxylic acid methylamide], the figure is 7.57.
Under `CNC(=O)c1cc(Oc2ccc(CNC(=O)Nc3cc(C(F)(F)F)ccc3-n3cncn3)cc2C)ccn1` [compound 202, 4-{2-Methyl-4-[3-(2-[1,2,4]triazol-1-yl-5-trifluoromethyl-phenyl)-ureidomethyl]-phenoxy}-pyridine-2-carboxylic acid methylamide] stands 7.85; under `CNC(=O)c1cc(Oc2ccc(CNC(=O)Nc3cc(C(F)(F)F)ccc3N3CCNCC3)cc2C)ccn1` [compound 184, 4-{2-Methyl-4-[3-(2-piperazin-1-yl-5-trifluoromethyl-phenyl)-ureidomethyl]-phenoxy}-pyridine-2-carboxylic acid methylamide], 7.12; under `CNC(=O)c1cc(Oc2ccc(CNC(=O)N3C(=O)Cc4ccc(C(F)(F)F)cc43)cc2)ccn1` [compound 205, 2-Oxo-6-trifluoromethyl-2,3-dihydro-indole-1-carboxylic acid 4-(2-methylcarbamoyl-pyridin-4-yloxy)-benzylamide], 5.96.
Under `CNC(=O)c1cc(Oc2ccc(CNC(=O)Nc3cc(C)c(Cl)cc3NC(C)=O)cc2C)ccn1` [compound 186, 4-{4-[3-(2-Acetylamino-4-chloro-5-methyl-phenyl)-ureidomethyl]-2-methyl-phenoxy}-pyridine-2-carboxylic acid methylamide] stands 6.48.
For the molecule `CNC(=O)c1cc(Oc2ccc(CNC(=O)Nc3cc(C(F)(F)F)ccc3CC(=O)O)cc2C)ccn1` [compound 220, (2-{3-[3-Methyl-4-(2-methylcarbamoyl-pyridin-4-yloxy)-benzyl]-ureido}-4-trifluoromethyl-phenyl)-acetic acid], the pIC50 was 4.63.
As for `CNC(=O)c1cc(Oc2ccc(CNC(=O)Nc3ccc(N4CCOCC4=O)c(Cl)c3)cc2)ccn1` [compound 225, 4-(4-{3-[3-Chloro-4-(3-oxo-morpholin-4-yl)-phenyl]-ureidomethyl}-phenoxy)-pyridine-2-carboxylic acid methylamide], the figure is 5.06; as for `CNC(=O)c1cc(Oc2ccc(CNC(=O)Nc3ccc(Cl)cc3Cl)cc2)ccn1` [compound 8], 6.59; as for `NCCNC(=O)c1cc(Oc2ccc(CNC(=O)Nc3ccc(Cl)c(C(F)(F)F)c3)cc2)ccn1` [compound 148, 4-{4-[3-(4-Chloro-3-trifluoromethyl-phenyl)-ureidomethyl]-phenoxy}-pyridine-2-carboxylic acid (2-amino-ethyl)-amide], 6.11.
Under `CNC(=O)c1cc(Oc2ccc(C(C)NC(=O)Nc3ccc(C)c(Cl)c3)cc2)ccn1` (stereo not drawn) [compound 73, 4-(4-{1-[3-(3-Chloro-4-methyl-phenyl)-ureido]-ethyl}-phenoxy)-pyridine-2-carboxylic acid methylamide] stands 5.76.
`CNC(=O)c1cc(Oc2ccc(CNC(=O)Nc3ccc4nsnc4c3)cc2)ccn1` [compound 76, 4-{4-[(3-Benzo[1,2,5]thiadiazol-5-yl-ureido)-methyl]-phenoxy}-pyridine-2-carboxylic acid methylamide]: the pIC50 is 6.17.
In the case of `CNC(=O)c1cc(Oc2ccc(CNC(=O)Nc3cc(C(F)(F)F)ccc3O)cc2C)ccn1` [compound 204, 4-{4-[3-(2-Hydroxy-5-trifluoromethyl-phenyl)-ureidomethyl]-2-methyl-phenoxy}-pyridine-2-carboxylic acid methylamide], the pIC50 is 7.42.
As for `CNC(=O)c1cc(Oc2ccc(CNC(=O)Nc3ccc(F)cc3)cc2)ccn1` [compound 12], the figure is 6.11; as for `CNC(=O)c1cc(Oc2ccc(CNC(=O)Nc3cc(Cl)cc(Cl)c3)cc2)ccn1` [compound 31], 6.76; as for `CNC(=O)c1cc(Oc2ccc(CNC(=O)Nc3cc(C(F)(F)F)ccc3CC(N)=O)cc2C)ccn1` [compound 207, 4-{4-[3-(2-Carbamoylmethyl-5-trifluoromethyl-phenyl)-ureidomethyl]-2-methyl-phenoxy}-pyridine-2-carboxylic acid methylamide], 6.55.
Under `CNC(=O)c1cc(Oc2ccc(CNC(=O)Nc3cccc(N(C)C)c3)cc2)ccn1` [compound 228, 4-{4-[3-(3-Dimethylamino-phenyl)-ureidomethyl]-phenoxy}-pyridine-2-carboxylic acid methylamide] stands 5.82; under `CNC(=O)c1cc(Oc2ccc(CNC(=O)Nc3cc(C(F)(F)F)ccc3CN3CCNCC3=O)cc2)ccn1` [compound 208, 4-(4-{3-[2-(2-Oxo-piperazin-1-ylmethyl)-5-trifluoromethyl-phenyl]-ureidomethyl}-phenoxy)-pyridine-2-carboxylic acid methylamide], 6.07.
Under `CNC(=O)c1cc(Oc2ccc(CNC(=O)Nc3cc(C(C)(C)C)n[nH]3)cc2)ccn1` [compound 223, 4-{4-[3-(5-tert-Butyl-2H-pyrazol-3-yl)-ureidomethyl]-phenoxy}-pyridine-2-carboxylic acid methylamide] stands 5.10; under `CNC(=O)c1cc(Oc2ccc(CNC(=O)Nc3cccc(S(=O)(=O)NC(C)C)c3)cc2)ccn1` [compound 158, 4-{4-[3-(3-Isopropylsulfamoyl-phenyl)-ureidomethyl]-phenoxy}-pyridine-2-carboxylic acid methylamide], 4.00.
As to `CNC(=O)c1cc(Oc2ccc(CNC(=O)Nc3nnc(C(F)(F)F)s3)cc2)ccn1` [compound 222, 4-{4-[3-(5-Trifluoromethyl-[1,3,4]thiadiazol-2-yl)-ureidomethyl]-phenoxy}-pyridine-2-carboxylic acid methylamide], the pIC50 is 6.24.
